# Measurements: patent US8802597B2, “Herbicidal pyrimidines” (E I du Pont de Nemours and Company, priority 2003, dated 2014)
# Legend:
# Type in all cases: in vivo
# [1] = test system: Surinam grass (Brachiaria decumbens); assay: Test B pre/postemergence
# Procedure, shortened: (§1)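 Visual rating, 0 (no effect) to 100 (complete control) versus controls, taken 13–15 days after treatment in greenhouse. Compounds formulated in non-phytotoxic solvent plus surfactant; pre: sprayed after seeding; post: plants at 1- to 4-leaf stage, 2–18 cm.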
# [2] = test system: barnyardgrass (Echinochloa crus-galli); assay: Test B pre/postemergence
# Procedure, shortened: as §1
# [3] = test system: cocklebur (Xanthium strumarium); assay: Test B pre/postemergence
# Procedure, shortened: as §1
# corn (Zea mays) = assay: Test B pre/postemergence
# Procedure, shortened: as §1
# [4] = test system: crabgrass (Digitaria sanguinalis); assay: Test B pre/postemergence
# Procedure, shortened: as §1
# [5] = test system: giant foxtail (Setaria faberii); assay: Test B pre/postemergence
# Procedure, shortened: as §1
# [6] = test system: lambsquarters (Chenopodium album); assay: Test B pre/postemergence
# Procedure, shortened: as §1
# [7] = test system: morningglory (Ipomoea coccinea); assay: Test B pre/postemergence
# Procedure, shortened: as §1
# [8] = test system: pigweed (Amaranthus retroflexus); assay: Test B pre/postemergence
# Procedure, shortened: as §1
# [9] = test system: velvetleaf (Abutilon theophrasti); assay: Test B pre/postemergence
# Procedure, shortened: as §1
# [10] = test system: wheat (Triticum aestivum); assay: Test B pre/postemergence
# Procedure, shortened: as §1
# [11] = test system: blackgrass (Alopecurus myosuroides); assay: Test B postemergence; conditions: for Blackgrass plant response rating: scale 0 to 100 (0 no effect, 100 complete control); for Plant response rating, Blackgrass: 500 g ai/ha, scale 0 to 100
# Procedure, shortened: as §1
# wild oat (Avena fatua) = assay: Test B postemergence; conditions: for Oat, Wild plant response rating: scale 0 to 100 (0 no effect, 100 complete control); for Plant response rating, Oat, Wild: 500 g ai/ha, scale 0 to 100
# Procedure, shortened: as §1
# [12] = test system: barnyardgrass (Echinochloa crus-galli); assay: Test B flooded paddy test; conditions: Flood
# Procedure, shortened: (§2)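 Plants were grown to the 2-leaf stage before treatment, then kept in a greenhouse for 13 to 15 days. Injury was rated visually against untreated controls on a 0 to 100 scale, where 0 is no effect and 100 is complete control.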
# [13] = test system: duck salad (Heteranthera limosa); assay: Test B flooded paddy test; conditions: Flood, scale 0 to 100
# Procedure, shortened: as §2
# rice (Oryza sativa) = assay: Test B flooded paddy test; conditions: Flood, scale 0 to 100
# Procedure, shortened: as §2
# [14] = test system: umbrella sedge (Cyperus difformis); assay: Test B flooded paddy test; conditions: Flood, scale 0 to 100
# Procedure, shortened: as §2
# [15] = Postemergence, 62 g ai/ha, scale 0 to 100 (0 no effect, 100 complete control)
# [16] = Postemergence, 125 g ai/ha, scale 0 to 100 (0 no effect, 100 complete control)
# [17] = Preemergence, 62 g ai/ha, scale 0 to 100, 0 no effect, 100 complete control
# [18] = Preemergence, 125 g ai/ha, scale 0 to 100 (0 no effect, 100 complete control)
# [19] = Postemergence, 500 g ai/ha, scale 0 to 100
# [20] = Preemergence, 500 g ai/ha, scale 0 to 100 (0 no effect, 100 complete control)
# [21] = 1000 g ai/ha, scale 0 (no effect) to 100 (complete control)
smiles,measurement,setting,value
COC(=O)c1nc(-c2ccc(I)cc2)nc(N)c1Br [Compound 128],Surinam Grass plant response rating,[1]; [15],30
same,Surinam Grass plant response rating,[1]; [16],40
same,"Plant response rating, Surinam Grass",[1]; [17],0
same,"Plant response rating, Surinam Grass",[1]; [18],0
same,Barnyardgrass plant response rating,[2]; [15],40
same,Barnyardgrass plant response rating,[2]; [16],60
same,"Plant response rating, Barnyardgrass",[2]; [17],0
same,"Plant response rating, Barnyardgrass",[2]; [18],10
same,Cocklebur plant response rating,[3]; [15],70
same,Cocklebur plant response rating,[3]; [16],90
same,"Plant response rating, Cocklebur",[3]; [17],0
same,"Plant response rating, Cocklebur",[3]; [18],10
same,Corn plant response rating,corn (Zea mays); [15],10
same,Corn plant response rating,corn (Zea mays); [16],70
same,"Plant response rating, Corn",corn (Zea mays); [17],0
same,"Plant response rating, Corn",corn (Zea mays); [18],0
same,Crabgrass plant response rating,[4]; [15],20
same,Crabgrass plant response rating,[4]; [16],40
same,"Plant response rating, Crabgrass",[4]; [17],0
same,"Plant response rating, Crabgrass",[4]; [18],0
same,"Foxtail, Giant plant response rating",[5]; [15],30
same,"Foxtail, Giant plant response rating",[5]; [16],50
same,"Plant response rating, Foxtail, Giant",[5]; [17],0
same,"Plant response rating, Foxtail, Giant",[5]; [18],0
same,Lambsquarters plant response rating,[6]; [15],90
same,Lambsquarters plant response rating,[6]; [16],90
same,"Plant response rating, Lambsquarters",[6]; [17],10
same,"Plant response rating, Lambsquarters",[6]; [18],50
same,Morningglory plant response rating,[7]; [15],40
same,Morningglory plant response rating,[7]; [16],90
same,"Plant response rating, Morningglory",[7]; [17],0
same,"Plant response rating, Morningglory",[7]; [18],0
same,Pigweed plant response rating,[8]; [15],90
same,Pigweed plant response rating,[8]; [16],90
same,"Plant response rating, Pigweed",[8]; [17],10
same,"Plant response rating, Pigweed",[8]; [18],50
same,Velvetleaf plant response rating,[9]; [15],50
same,Velvetleaf plant response rating,[9]; [16],80
same,"Plant response rating, Velvetleaf",[9]; [17],0
same,"Plant response rating, Velvetleaf",[9]; [18],40
same,Wheat plant response rating,[10]; [15],0
same,Wheat plant response rating,[10]; [16],20
same,"Plant response rating, Wheat",[10]; [17],0
same,"Plant response rating, Wheat",[10]; [18],0
same,Blackgrass plant response rating,[11]; 62 g ai/ha,40
same,Blackgrass plant response rating,[11]; 125 g ai/ha,50
same,"Oat, Wild plant response rating",wild oat (Avena fatua); 62 g ai/ha,0
same,"Oat, Wild plant response rating",wild oat (Avena fatua); 125 g ai/ha,40
same,"Plant response rating, Barnyardgrass","[12]; 125 g ai/ha, scale 0 to 100",0
same,"Plant response rating, Barnyardgrass","[12]; 500 g ai/ha, scale 0 to 100",30
same,"Plant response rating, Ducksalad",[13]; 125 g ai/ha,90
same,"Plant response rating, Ducksalad",[13]; 500 g ai/ha,100
same,"Plant response rating, Rice",rice (Oryza sativa); 125 g ai/ha,0
same,"Plant response rating, Rice",rice (Oryza sativa); 500 g ai/ha,0
same,"Plant response rating, Sedge, Umbrella",[14]; 125 g ai/ha,90
same,"Plant response rating, Sedge, Umbrella",[14]; 500 g ai/ha,100
CCOC(=O)C(OC(C)=O)c1nc(C2CC2)nc(N)c1Br (stereo not drawn) [Compound 47],Surinam Grass plant response rating,[1]; [16],0
same,"Plant response rating, Surinam Grass",[1]; [19],20
same,"Plant response rating, Surinam Grass",[1]; [18],0
same,Surinam Grass plant response rating,[1]; [20],20
same,Barnyardgrass plant response rating,[2]; [16],20
same,"Plant response rating, Barnyardgrass",[2]; [19],60
same,"Plant response rating, Barnyardgrass",[2]; [18],0
same,Barnyardgrass plant response rating,[2]; [20],40
same,Cocklebur plant response rating,[3]; [16],90
same,"Plant response rating, Cocklebur",[3]; [19],100
same,"Plant response rating, Cocklebur",[3]; [18],80
same,Cocklebur plant response rating,[3]; [20],90
same,Corn plant response rating,corn (Zea mays); [16],0
same,"Plant response rating, Corn",corn (Zea mays); [19],0
same,"Plant response rating, Corn",corn (Zea mays); [18],0
same,Corn plant response rating,corn (Zea mays); [20],30
same,Crabgrass plant response rating,[4]; [16],10
same,"Plant response rating, Crabgrass",[4]; [19],60
same,"Plant response rating, Crabgrass",[4]; [18],20
same,Crabgrass plant response rating,[4]; [20],90
same,"Foxtail, Giant plant response rating",[5]; [16],10
same,"Plant response rating, Foxtail, Giant",[5]; [19],50
same,"Plant response rating, Foxtail, Giant",[5]; [18],20
same,"Foxtail, Giant plant response rating",[5]; [20],40
same,Lambsquarters plant response rating,[6]; [16],80
same,"Plant response rating, Lambsquarters",[6]; [19],90
same,"Plant response rating, Lambsquarters",[6]; [18],90
same,Lambsquarters plant response rating,[6]; [20],100
same,Morningglory plant response rating,[7]; [16],80
same,"Plant response rating, Morningglory",[7]; [19],90
same,"Plant response rating, Morningglory",[7]; [18],80
same,Morningglory plant response rating,[7]; [20],100
same,Pigweed plant response rating,[8]; [16],70
same,"Plant response rating, Pigweed",[8]; [19],80
same,"Plant response rating, Pigweed",[8]; [18],80
same,Pigweed plant response rating,[8]; [20],90
same,Velvetleaf plant response rating,[9]; [16],20
same,"Plant response rating, Velvetleaf",[9]; [19],40
same,"Plant response rating, Velvetleaf",[9]; [18],60
same,Velvetleaf plant response rating,[9]; [20],90
same,Wheat plant response rating,[10]; [16],0
same,"Plant response rating, Wheat",[10]; [19],0
same,"Plant response rating, Wheat",[10]; [18],20
same,"Plant response rating, Wheat",[10]; [20],50
same,Blackgrass plant response rating,[11]; 125 g ai/ha,0
same,"Plant response rating, Blackgrass",[11],0
same,"Oat, Wild plant response rating",wild oat (Avena fatua); 125 g ai/ha,0
same,"Plant response rating, Oat, Wild",wild oat (Avena fatua),0
same,"Plant response rating, Barnyardgrass",[12]; [21],0
same,"Plant response rating, Ducksalad",[13]; 1000 g ai/ha,80
same,"Plant response rating, Rice",rice (Oryza sativa); 1000 g ai/ha,0
same,"Plant response rating, Sedge, Umbrella",[14]; 1000 g ai/ha,70
COC(=O)CNc1nc(C2CC2)nc(C(=O)OC)c1Br [Compound 10],Surinam Grass plant response rating,[1]; [16],10
same,"Plant response rating, Surinam Grass",[1]; [19],10
same,"Plant response rating, Surinam Grass",[1]; [18],0
same,Surinam Grass plant response rating,[1]; [20],0
same,Barnyardgrass plant response rating,[2]; [16],0
same,"Plant response rating, Barnyardgrass",[2]; [19],10
same,"Plant response rating, Barnyardgrass",[2]; [18],20
same,Barnyardgrass plant response rating,[2]; [20],50
same,Cocklebur plant response rating,[3]; [16],60
same,"Plant response rating, Cocklebur",[3]; [19],70
same,"Plant response rating, Cocklebur",[3]; [18],80
same,Cocklebur plant response rating,[3]; [20],90
same,Corn plant response rating,corn (Zea mays); [16],0
same,"Plant response rating, Corn",corn (Zea mays); [19],0
same,"Plant response rating, Corn",corn (Zea mays); [18],0
same,Corn plant response rating,corn (Zea mays); [20],0
same,Crabgrass plant response rating,[4]; [16],30
same,"Plant response rating, Crabgrass",[4]; [19],40
same,"Plant response rating, Crabgrass",[4]; [18],20
same,Crabgrass plant response rating,[4]; [20],60
same,"Foxtail, Giant plant response rating",[5]; [16],0
same,"Plant response rating, Foxtail, Giant",[5]; [19],10
same,"Plant response rating, Foxtail, Giant",[5]; [18],0
same,"Foxtail, Giant plant response rating",[5]; [20],20
same,Lambsquarters plant response rating,[6]; [16],80
same,"Plant response rating, Lambsquarters",[6]; [19],90
same,Lambsquarters plant response rating,[6]; [20],90
same,Morningglory plant response rating,[7]; [16],80
same,"Plant response rating, Morningglory",[7]; [19],80
same,"Plant response rating, Morningglory",[7]; [18],80
same,Morningglory plant response rating,[7]; [20],90
same,Pigweed plant response rating,[8]; [16],80
same,"Plant response rating, Pigweed",[8]; [19],90
same,"Plant response rating, Pigweed",[8]; [18],80
same,Pigweed plant response rating,[8]; [20],90
same,Velvetleaf plant response rating,[9]; [16],50
same,"Plant response rating, Velvetleaf",[9]; [19],80
same,"Plant response rating, Velvetleaf",[9]; [18],80
same,Velvetleaf plant response rating,[9]; [20],90
same,Wheat plant response rating,[10]; [16],0
same,"Plant response rating, Wheat",[10]; [19],0
same,"Plant response rating, Wheat",[10]; [18],0
same,Wheat plant response rating,[10]; [20],0
same,Blackgrass plant response rating,[11]; 125 g ai/ha,0
same,"Plant response rating, Blackgrass",[11],0
same,"Oat, Wild plant response rating",wild oat (Avena fatua); 125 g ai/ha,0
same,"Plant response rating, Oat, Wild",wild oat (Avena fatua),10
same,"Plant response rating, Barnyardgrass",[12]; [21],0
same,"Plant response rating, Ducksalad",[13]; 1000 g ai/ha,0
same,"Plant response rating, Rice",rice (Oryza sativa); 1000 g ai/ha,0
same,"Plant response rating, Sedge, Umbrella",[14]; 1000 g ai/ha,0
